In US20070049564A1 (Wyeth, priority 2005, published 2007):
Values after ≈ are worked out from the molar mass of the structure shown. Read-outs that look alike come from different tables or passages of the source.

What was measured:
E. faecalis GC 2265 = assay: MIC, broth microdilution; details: Enterococcus faecalis
E. faecalis GC 4555 = assay: MIC, broth microdilution; details: Enterococcus faecalis
S. aureus GC 4536 = assay: MIC, broth microdilution; details: Staphylococcus aureus
S. aureus GC 6469 = assay: MIC, broth microdilution; details: Staphylococcus aureus
E. coli GC 2236 = assay: MIC, broth microdilution; details: Escherichia coli
E. coli GC 6465 = assay: MIC, broth microdilution; details: Escherichia coli
E. coli GC 1073 = assay: MIC, broth microdilution; details: Escherichia coli
E. coli GC 2233 = assay: MIC, broth microdilution; details: Escherichia coli
E. coli = assay: Range of MIC for E. coli strains; details: Escherichia coli
c. albicans GC 3066 = assay: MIC, broth microdilution
E. coli GC 2272 = assay: MIC, broth microdilution; details: Escherichia coli
Staph. = assay: Range of MIC for Staph. strains, including MRSA; details: Staphylococcus aureus
S. aureus GC 6466 = assay: MIC, broth microdilution; details: Staphylococcus aureus
S. aureus GC 1079 = assay: MIC, broth microdilution; details: Staphylococcus aureus
S. epidermidis GC 4935 = assay: MIC, broth microdilution; details: Staphylococcus epidermidis
S. aureus GC 1131 = assay: MIC, broth microdilution; details: Staphylococcus aureus
S. pyogenes GC 4563 = assay: MIC, broth microdilution; details: Streptococcus pyogenes
E. faecium GC 2243 = assay: MIC, broth microdilution; details: Enterococcus faecium
E. coli GC 2234 = assay: MIC, broth microdilution; details: Escherichia coli
S. pneumoniae+ GC 4465 = assay: MIC, broth microdilution; details: Streptococcus pneumoniae

MIC (E. faecalis GC 2265; GC2265, read-out: MINIMAL INHIBITORY CONCENTRATION MIC, Human Serum): 4 µg/mL (≈ 5.12 µM)
MIC (E. faecalis GC 2265; GC2265, read-out: MINIMAL INHIBITORY CONCENTRATION MIC, Mouse Serum): 1 µg/mL (≈ 1.28 µM)
MIC (E. faecalis GC 2265; GC2265, read-out: MINIMAL INHIBITORY CONCENTRATION MIC, Water): 4 µg/mL (≈ 5.12 µM)
MIC (E. faecalis GC 4555; GC4555, read-out: MINIMAL INHIBITORY CONCENTRATION MIC, Human Serum): 2 µg/mL (≈ 2.56 µM)
MIC (E. faecalis GC 4555; GC4555, read-out: MINIMAL INHIBITORY CONCENTRATION MIC, Mouse Serum): 0.5 µg/mL (≈ 0.64 µM)
MIC (E. faecalis GC 4555; GC4555, read-out: MINIMAL INHIBITORY CONCENTRATION MIC, Water): 4 µg/mL (≈ 5.12 µM)
MIC (S. aureus GC 4536; GC4536, read-out: MINIMAL INHIBITORY CONCENTRATION MIC, Human Serum): 0.5 µg/mL (≈ 0.64 µM)
MIC (S. aureus GC 4536; GC4536, read-out: MINIMAL INHIBITORY CONCENTRATION MIC, Mouse Serum): 0.5 µg/mL (≈ 0.64 µM)
MIC (S. aureus GC 4536; GC4536, read-out: MINIMAL INHIBITORY CONCENTRATION MIC, Water): 2 µg/mL (≈ 2.56 µM)
MIC (S. aureus GC 6469; GC6469, read-out: MINIMAL INHIBITORY CONCENTRATION MIC, Human Serum): 2 µg/mL (≈ 2.56 µM)
MIC (S. aureus GC 6469; GC6469, read-out: MINIMAL INHIBITORY CONCENTRATION MIC, Mouse Serum): 0.5 µg/mL (≈ 0.64 µM)
MIC (S. aureus GC 6469; GC6469, read-out: MINIMAL INHIBITORY CONCENTRATION MIC, Water): 4 µg/mL (≈ 5.12 µM)
MIC (E. coli GC 2236; GC2236, read-out: MINIMAL INHIBITORY CONCENTRATION MIC, Human Serum): 8 µg/mL (≈ 10.2 µM)
MIC (E. coli GC 2236; GC2236, read-out: MINIMAL INHIBITORY CONCENTRATION MIC, Mouse Serum): 1 µg/mL (≈ 1.28 µM)
MIC (E. coli GC 2236; GC2236, read-out: MINIMAL INHIBITORY CONCENTRATION MIC, Water): 8 µg/mL (≈ 10.2 µM)
MIC (E. coli GC 6465; GC6465, read-out: MINIMAL INHIBITORY CONCENTRATION MIC, Human Serum): 16 µg/mL (≈ 20.5 µM)
MIC (E. coli GC 6465; GC6465, read-out: MINIMAL INHIBITORY CONCENTRATION MIC, Mouse Serum): 2 µg/mL (≈ 2.56 µM)
MIC (E. coli GC 6465; GC6465, read-out: MINIMAL INHIBITORY CONCENTRATION MIC, Water): 64 µg/mL (≈ 81.9 µM)
MIC (E. coli GC 1073; GC1073, read-out: MINIMAL INHIBITORY CONCENTRATION MIC, Human Serum): 8 µg/mL (≈ 10.2 µM)
MIC (E. coli GC 1073; GC1073, read-out: MINIMAL INHIBITORY CONCENTRATION MIC, Mouse Serum): 1 µg/mL (≈ 1.28 µM)
MIC (E. coli GC 1073; GC1073, read-out: MINIMAL INHIBITORY CONCENTRATION MIC, Water): 4 µg/mL (≈ 5.12 µM)
MIC (E. coli GC 2233; GC2233, read-out: MINIMAL INHIBITORY CONCENTRATION MIC, Human Serum): 8 µg/mL (≈ 10.2 µM)
MIC (E. coli GC 2233; GC2233, read-out: MINIMAL INHIBITORY CONCENTRATION MIC, Mouse Serum): 0.5 µg/mL (≈ 0.64 µM)
MIC (E. coli GC 2233; GC2233, read-out: MINIMAL INHIBITORY CONCENTRATION MIC, Water): 8 µg/mL (≈ 10.2 µM)
MIC (E. coli; 20 h, read-out: Range of MIC, E. coli (Mouse Serum)): 0.5 to 1 µg/mL (≈ 0.64 to 1.28 µM)
MIC (E. coli; read-out: Minimum inhibitory concentration (MIC), E. coli (Human Serum)): 4 to 16 µg/mL (≈ 5.12 to 20.5 µM)
MIC (E. coli; read-out: Minimum inhibitory concentration (MIC), E. coli (water)): 4 to 16 µg/mL (≈ 5.12 to 20.5 µM)
MIC (E. coli; read-out: Range of MIC, E. coli (Water)): 4 to 16 µg/mL (≈ 5.12 to 20.5 µM)
MIC (c. albicans GC 3066; Candida albicans, GC3066, read-out: MINIMAL INHIBITORY CONCENTRATION MIC): > 64 µg/mL
MINIMAL INHIBITORY CONCENTRATION MIC (c. albicans GC 3066; Human Serum): >64 UG/ML
MINIMAL INHIBITORY CONCENTRATION MIC (c. albicans GC 3066; Mouse Serum): >64 UG/ML
MIC (E. coli GC 2272; GC2272, read-out: MINIMAL INHIBITORY CONCENTRATION MIC, Human Serum): 4 µg/mL (≈ 5.12 µM)
MIC (E. coli GC 2272; GC2272, read-out: MINIMAL INHIBITORY CONCENTRATION MIC, Mouse Serum): 0.5 µg/mL (≈ 0.64 µM)
MIC (E. coli GC 2272; GC2272, read-out: MINIMAL INHIBITORY CONCENTRATION MIC, Water): 4 µg/mL (≈ 5.12 µM)
MIC (Staph.; MRSA, read-out: Range of MIC, Staph (Mouse Serum)): 0.5 to 1 µg/mL (≈ 0.64 to 1.28 µM)
MIC (Staph.; MRSA, read-out: Range of MIC, Staph (Water)): 2 to 4 µg/mL (≈ 2.56 to 5.12 µM)
MIC (Staph.; read-out: Minimum inhibitory concentration (MIC), Staph (Human Serum)): 0.5 to 4 µg/mL (≈ 0.64 to 5.12 µM)
MIC (Staph.; read-out: Minimum inhibitory concentration (MIC), Staph (Water)): 2 to 4 µg/mL (≈ 2.56 to 5.12 µM)
MIC (S. aureus GC 6466; GC6466, read-out: MINIMAL INHIBITORY CONCENTRATION MIC, Human Serum): 1 µg/mL (≈ 1.28 µM)
MIC (S. aureus GC 6466; GC6466, read-out: MINIMAL INHIBITORY CONCENTRATION MIC, Mouse Serum): 0.5 µg/mL (≈ 0.64 µM)
MIC (S. aureus GC 6466; GC6466, read-out: MINIMAL INHIBITORY CONCENTRATION MIC, Water): 2 µg/mL (≈ 2.56 µM)
MIC (S. aureus GC 1079; GC1079, read-out: MINIMAL INHIBITORY CONCENTRATION MIC, Human Serum): 1 µg/mL (≈ 1.28 µM)
MIC (S. aureus GC 1079; GC1079, read-out: MINIMAL INHIBITORY CONCENTRATION MIC, Mouse Serum): 0.5 µg/mL (≈ 0.64 µM)
MIC (S. aureus GC 1079; GC1079, read-out: MINIMAL INHIBITORY CONCENTRATION MIC, Water): 2 µg/mL (≈ 2.56 µM)
MIC (S. epidermidis GC 4935; GC4935, read-out: MINIMAL INHIBITORY CONCENTRATION MIC, Human Serum): 4 µg/mL (≈ 5.12 µM)
MIC (S. epidermidis GC 4935; GC4935, read-out: MINIMAL INHIBITORY CONCENTRATION MIC, Mouse Serum): 1 µg/mL (≈ 1.28 µM)
MIC (S. epidermidis GC 4935; GC4935, read-out: MINIMAL INHIBITORY CONCENTRATION MIC, Water): 4 µg/mL (≈ 5.12 µM)
MIC (S. aureus GC 1131; GC1131, read-out: MINIMAL INHIBITORY CONCENTRATION MIC, Human Serum): 1 µg/mL (≈ 1.28 µM)
MIC (S. aureus GC 1131; GC1131, read-out: MINIMAL INHIBITORY CONCENTRATION MIC, Mouse Serum): 0.5 µg/mL (≈ 0.64 µM)
MIC (S. aureus GC 1131; GC1131, read-out: MINIMAL INHIBITORY CONCENTRATION MIC, Water): 2 µg/mL (≈ 2.56 µM)
MIC (S. pyogenes GC 4563; GC4563, read-out: MINIMAL INHIBITORY CONCENTRATION MIC, Human Serum): 0.25 µg/mL (≈ 0.32 µM)
MIC (S. pyogenes GC 4563; GC4563, read-out: MINIMAL INHIBITORY CONCENTRATION MIC, Mouse Serum): 0.12 µg/mL (≈ 0.153 µM)
MIC (S. pyogenes GC 4563; GC4563, read-out: MINIMAL INHIBITORY CONCENTRATION MIC, Water): 0.25 µg/mL (≈ 0.32 µM)
MIC (E. faecium GC 2243; GC2243, read-out: MINIMAL INHIBITORY CONCENTRATION MIC, Human Serum): 1 µg/mL (≈ 1.28 µM)
MIC (E. faecium GC 2243; GC2243, read-out: MINIMAL INHIBITORY CONCENTRATION MIC, Mouse Serum): 0.25 µg/mL (≈ 0.32 µM)
MIC (E. faecium GC 2243; GC2243, read-out: MINIMAL INHIBITORY CONCENTRATION MIC, Water): 1 µg/mL (≈ 1.28 µM)
MIC (E. coli GC 2234; GC2234, read-out: MINIMAL INHIBITORY CONCENTRATION MIC, Human Serum): 4 µg/mL (≈ 5.12 µM)
MIC (E. coli GC 2234; GC2234, read-out: MINIMAL INHIBITORY CONCENTRATION MIC, Mouse Serum): 0.5 µg/mL (≈ 0.64 µM)
MIC (E. coli GC 2234; GC2234, read-out: MINIMAL INHIBITORY CONCENTRATION MIC, Water): 8 µg/mL (≈ 10.2 µM)
MIC (S. pneumoniae+ GC 4465; read-out: MINIMAL INHIBITORY CONCENTRATION MIC, Human Serum): 4 µg/mL (≈ 5.12 µM)
MIC (S. pneumoniae+ GC 4465; read-out: MINIMAL INHIBITORY CONCENTRATION MIC, Mouse Serum): 1 µg/mL (≈ 1.28 µM)
MIC (S. pneumoniae+ GC 4465; read-out: MINIMAL INHIBITORY CONCENTRATION MIC, Water): 2 µg/mL (≈ 2.56 µM)
Structure (SMILES): CN(C)c1cc(NC(=O)CN(C(=O)OCOC(=O)c2ccc(F)cc2)C(C)(C)C)c(O)c2c1C[C@H]1C[C@H]3[C@H](N(C)C)C(O)=C(C(N)=O)C(=O)[C@@]3(O)C(O)=C1C2=O [Example 52, ({[(2-{[(5aR,6aS,7S,10aS)-9-(aminocarbonyl)-4,7-bis(dimethylamino)-1,8,10a,11-tetrahydroxy-10,12-dioxo-5,5a,6,6a,7,10,10a,12-octahydrotetracen-2-yl]amino}-2-oxoethyl)(tert-butyl)amino]carbonyl}oxy)methyl 4-fluorobenzoate]
